The test concerns the target Metabotropic glutamate receptor 7 (Rattus norvegicus, UniProt P35400). Description: Positive allosteric modulation of rat mGlu7 receptor expressed in HEK293 cells co-expressing Gai5 assessed as potentiation of L-AP4-induced calcium mobilization preincubated for 140 secs and treated with EC20 L-AP4 for 125 secs and followed by subsequent addition of EC80 L-AP4 by Fluo-4-AM dye based fluorescence assay. On the technique in general: Calcium flux is commonly read through the fluorescence of an indicator in the cells.

Metabotropic glutamate receptor 7, sequence (P35400 whole entry): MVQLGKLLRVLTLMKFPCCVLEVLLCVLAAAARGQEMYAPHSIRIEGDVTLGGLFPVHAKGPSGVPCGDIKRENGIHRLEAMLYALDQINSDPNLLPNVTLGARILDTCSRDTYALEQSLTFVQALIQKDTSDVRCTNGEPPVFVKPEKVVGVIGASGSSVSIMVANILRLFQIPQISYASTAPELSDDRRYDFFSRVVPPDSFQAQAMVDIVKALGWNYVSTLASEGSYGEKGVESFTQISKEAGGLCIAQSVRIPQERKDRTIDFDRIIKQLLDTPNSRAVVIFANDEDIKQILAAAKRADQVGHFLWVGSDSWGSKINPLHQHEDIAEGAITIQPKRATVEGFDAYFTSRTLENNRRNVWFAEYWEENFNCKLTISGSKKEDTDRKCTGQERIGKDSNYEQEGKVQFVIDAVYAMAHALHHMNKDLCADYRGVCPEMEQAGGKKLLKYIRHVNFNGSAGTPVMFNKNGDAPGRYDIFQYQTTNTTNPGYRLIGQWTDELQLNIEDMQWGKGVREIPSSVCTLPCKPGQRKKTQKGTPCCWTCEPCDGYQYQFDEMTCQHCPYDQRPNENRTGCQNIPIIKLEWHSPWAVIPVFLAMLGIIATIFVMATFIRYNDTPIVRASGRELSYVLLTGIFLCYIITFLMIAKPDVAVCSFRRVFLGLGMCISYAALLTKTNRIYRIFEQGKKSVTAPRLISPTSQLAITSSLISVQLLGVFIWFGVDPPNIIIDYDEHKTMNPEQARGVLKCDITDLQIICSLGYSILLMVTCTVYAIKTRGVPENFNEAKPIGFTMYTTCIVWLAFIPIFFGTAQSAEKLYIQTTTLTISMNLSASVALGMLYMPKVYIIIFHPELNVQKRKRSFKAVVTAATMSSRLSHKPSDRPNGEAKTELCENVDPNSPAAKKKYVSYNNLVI

Take `N#Cc1cnc2c(OC3CCOC3)cccc2c1N1CCN(c2ccccc2F)CC1` (stereo unspecified): the EC50 stood at 1.54 µM.

By EC50 is commonly meant the concentration giving half of the maximal effect.
